The nature of this series: Water solubility as observed during handling, NMR and crystallization. The class given is physicochemical.

Take Fmoc–Q^SO3H–OH [Compound 14]: the “solubility in water (in words)” value was “surprisingly high”.
